18 compounds from patent US20230059136A1, “THE COMPOUNDS AND COMPOSITIONS FOR TREATING CONDITIONS ASSOCIATED WITH NLRP ACTIVITY” (Novartis AG, priority 2018, published 2023) can be followed below.

A value given as a limit tells only on which side of the number the result lay.

In the first assay the test system is IL-1β production in PMA-differentiated THP-1 cells. Kind of assay: IL-1β production in PMA-differentiated THP-1 cells stimulated with gramicidin (hTHP-1 assay containing 2% fetal bovine serum). The following applies: Homo sapiens, THP-1, Table B1; 2% fetal bovine serum; cells printed as numeric bound; read-out: hTHP-1 IC50 (Average IC50 of compounds in hTHP-1 assay). The assay is classed as cell-based, human. The procedure, abridged:
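IL-1β release was read by HTRF on supernatants of 50,000 PMA-primed (20 ng/ml, 16-18 h) THP-1 cells/well in 2% FBS medium. Cells saw compound for 1 h (11-point titration from 100 μM, 0.37% DMSO) before a 2 h gramicidin (5 μM) challenge.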
The IC50 is the concentration needed to halve the response being measured. Consider `CC(C)c1cc(F)cc(C(C)C)c1C(C)C(=O)N=S(N)(=O)c1cnc(C(C)(C)O)s1` (single isomer, unassigned) [Example 195, (R, R) or (R, S)-N-(amino (2-(2-hydroxypropan-2-yl)thiazol-5-yl)(oxo)-λ^6-sulfaneylidene)-2-(4-fluoro-2,6-diisopropylphenyl) propanamide], for which the IC50 was greater than 30000 nM.

Staying with this assay, now noted: Homo sapiens, THP-1, Table B1; 2% fetal bovine serum; class symbols; read-out: hTHP-1 IC50 (Average IC50 of compounds in hTHP-1 assay).
On to `CC(C)c1cc2c(c(C(C)C)c1CC(=O)N=S(N)(=O)c1ccc(CN(C)C)cc1)COC2` (single isomer, unassigned) [Example 191, (R) or (S)-N-(amino(4-((dimethylamino)methyl)phenyl)(oxo)-λ^6-sulfaneylidene)-2-(4,6-diisopropyl-1,3-dihydroisobenzofuran-5-yl)acetamide], for which the IC50 lay within 1000 to 5000 nM.

Regarding `CC(C)(O)c1ncc(S(N)(=O)=NC(=O)Cc2c(C3CC3)cc(F)cc2C(F)(F)F)s1` (single isomer, unassigned) [Example 196, (R) or (S)-N-(amino (2-(2-hydroxypropan-2-yl)thiazol-5-yl)(oxo)-λ^6-sulfaneylidene)-2-(2-cyclopropyl-4-fluoro-6-(trifluoromethyl)phenyl) acetamide], the IC50 fell in the range of 5000 to 30000 nM.

As to `CC(C)c1cc2c(c(C(C)C)c1CC(=O)N=S(N)(=O)c1cnc(C(C)(C)O)s1)CCC2` (single isomer, unassigned) [Example 213, (S) or (R)-N-(amino(2-(2-hydroxypropan-2-yl)thiazol-5-yl)(oxo)-λ^6-sulfaneylidene)-2-(4,6-diisopropyl-2,3-dihydro-1H-inden-5-yl)acetamide], the 50% inhibitory concentration (IC50) was 1000 to 5000 nM.

The assay is the same for the next values; noted with them: Table B1; 2% fetal bovine serum; class symbols; read-out: hTHP-1 IC50 (Average IC50 of compounds in hTHP-1 assay).
For `CC(C)c1cc2c(c(C(C)C)c1CC(=O)N=S(N)(=O)c1cnc(C(C)(C)O)s1)COC2` (single isomer, unassigned) [Example 184, (S) or (R)-N-(amino(2-(2-hydroxypropan-2-yl)thiazol-5-yl)(oxo)-λ^6-sulfaneylidene)-2-(4,6-diisopropyl-1,3-dihydro-isobenzofuran-5-yl)acetamide], the IC50 lay within 5000 to 30000 nM.

Turning to `COCc1cc(C(C)C)c(CC(=O)N=S(N)(=O)c2ncc(C(C)(C)O)s2)c(C(C)C)c1` (single isomer, unassigned) [Example 185, (R) or (S)-N-(amino(5-(2-hydroxypropan-2-yl)thiazol-2-yl)(oxo)-λ^6-sulfaneylidene)-2-(2,6-diisopropyl-4-(methoxymethyl)phenyl)acetamide], the IC50 lay within 40 to 200 nM.

With `COCc1cc(C(C)C)c(CC(=O)N=S(N)(=O)c2ncc(C(C)(C)O)s2)c(C(C)C)c1` (single isomer, unassigned) [Example 186, (S) or (R)-N-(amino(5-(2-hydroxypropan-2-yl)thiazol-2-yl)(oxo)-λ^6-sulfaneylidene)-2-(2,6-diisopropyl-4-(methoxymethyl)phenyl)acetamide], the IC50 is 5000 to 30000 nM.

On to `CC(C)c1ccc(F)c(C(C)C)c1CC(=O)N=S(N)(=O)c1ncc(C(C)(C)O)s1` (single isomer, unassigned) [Example 187, (S) or (R)-N-(amino(5-(2-hydroxypropan-2-yl)thiazol-2-yl)(oxo)-λ^6-sulfaneylidene)-2-(3-fluoro-2,6-diisopropylphenyl) acetamide], for which the IC50 was in the range of 5000 to 30000 nM.

Regarding `CC(C)c1ccc(F)c(C(C)C)c1CC(=O)N=S(N)(=O)c1ncc(C(C)(C)O)s1` (single isomer, unassigned) [Example 188, (R) or (S)-N-(amino(5-(2-hydroxypropan-2-yl)thiazol-2-yl)(oxo)-λ^6-sulfaneylidene)-2-(3-fluoro-2,6-diisopropylphenyl) acetamide], the IC50 lay in the range of 200 to 1000 nM.

Consider `CC(C)c1cc(C#N)c(F)c(C(C)C)c1CC(=O)N=S(N)(=O)c1nc(C(C)(C)O)cs1` (single isomer, unassigned) [Example 189, (S) or (R)-N-(amino(4-(2-hydroxypropan-2-yl)thiazol-2-yl)(oxo)-λ^6-sulfaneylidene)-2-(4-cyano-3-fluoro-2,6-diisopropylphenyl) acetamide], for which the IC50 was 1000 to 5000 nM.

Consider `CC(C)c1cc(C#N)c(F)c(C(C)C)c1CC(=O)N=S(N)(=O)c1nc(C(C)(C)O)cs1` (single isomer, unassigned) [Example 190, (R) or (S)-N-(amino(4-(2-hydroxypropan-2-yl)thiazol-2-yl)(oxo)-λ^6-sulfaneylidene)-2-(4-cyano-3-fluoro-2,6-diisopropylphenyl) acetamide], for which the IC50 is 40 to 200 nM.

Regarding `CC(C)c1nc(-c2cccc(C(F)(F)F)c2)c(F)c(C(C)C)c1CC(=O)N=S(N)(=O)c1cnc(C(C)(C)O)s1` (single isomer, unassigned) [Example 202, N-(amino(2-(2-hydroxypropan-2-yl)thiazol-5-yl)(oxo)-λ^6-sulfaneylidene)-2-(5-fluoro-2,4-diisopropyl-6-(3-(trifluoromethyl)phenyl)pyridin-3-yl) acetamide], the IC50 was 200 to 1000 nM.

Regarding `CC(C)c1nc(-c2cccc(C(F)(F)F)c2)c(F)c(C(C)C)c1CC(=O)N=S(N)(=O)c1cnc(C(C)(C)O)s1` (single isomer, unassigned) [Example 203, (S) or (R)-N-(amino (2-(2-hydroxypropan-2-yl)thiazol-5-yl)(oxo)-λ^6-sulfaneylidene)-2-(5-fluoro-2,4-diisopropyl-6-(3-(trifluoromethyl)phenyl)pyridin-3-yl) acetamide], the IC50 is 5000 to 30000 nM.

`CC(C)c1ncc(F)c(C(C)C)c1CC(=O)N=S(N)(=O)c1cc(C(C)(C)O)cs1` (single isomer, unassigned) [Example 208, N-(amino(4-(2-hydroxypropan-2-yl)thiophen-2-yl)(oxo)-λ^6-sulfaneylidene)-2-(5-fluoro-2,4-diisopropylpyridin-3-yl)acetamide]: the half-maximal inhibitory concentration (IC50) lay within 40 to 200 nM.

Regarding `CC(C)c1ncc(F)c(C(C)C)c1CC(=O)N=S(N)(=O)c1cc(C(C)(C)O)cs1` (single isomer, unassigned) [Example 209, (S) or (R)-N-(amino(4-(2-hydroxypropan-2-yl)thiophen-2-yl)(oxo)-λ^6-sulfaneylidene)-2-(5-fluoro-2,4-diisopropylpyridin-3-yl)acetamide], the IC50 fell in the range of 1000 to 5000 nM.

Take `CC(C)c1ncc(F)c(C(C)C)c1CC(=O)N=S(N)(=O)c1sc(C(C)(C)O)cc1F` (single isomer, unassigned) [Example 210, (S) or (R)-N-(amino (3-fluoro-5-(2-hydroxypropan-2-yl)thiophen-2-yl)(oxo)-λ^6-sulfaneylidene)-2-(5-fluoro-2,4-diisopropylpyridin-3-yl)acetamide]: the IC50 was 5000 to 30000 nM.

As for `CC(C)c1ncc(F)c(C(C)C)c1CC(=O)N=S(N)(=O)c1sc(C(C)(C)O)cc1F` (single isomer, unassigned) [Example 211, N-(amino(3-fluoro-5-(2-hydroxypropan-2-yl)thiophen-2-yl)(oxo)-λ^6-sulfaneylidene)-2-(5-fluoro-2,4-diisopropylpyridin-3-yl)acetamide], the IC50 was 200 to 1000 nM.

As to `CC(C)c1cc(C(F)F)cc(C(C)C)c1CC(=O)N=S(N)(=O)c1ccc(CN(C)C)cc1F` (single isomer, unassigned) [Example 214, (R) or (S)-N-(amino(4-((dimethylamino)methyl)-2-fluorophenyl) (oxo)-λ^6-sulfaneylidene)-2-(4-(difluoromethyl)-2,6-diisopropylphenyl) acetamide], the IC50 was 40 to 200 nM.
